Square brackets hold non-standard residues; d marks the D form. Ends that are not written are not given here. 1Nal = N[C@@H](Cc1cccc2ccccc12)C(=O)O
Assays:
[1] = test system: Klebsiella pneumoniae 19645; assay: Radial diffusion bactericidal assay, antibiotic resistant Klebsiella pneumoniae 19645; format: cell-based
Protocol: (§1) These studies were conducted substantially following the procedures used in Example 2.
In order to test the bactericidal activity of BPI peptides on antibiotic resistant strains of Klebsiella pneumoniae, the multi-resistant clinically isolated strain 19645 was tested as in Example 2 and above. […] This strain was obtained from the Baxter Microscan® library (Sacramento, Calif.). An overnight culture of Klebsiella pneumoniae 19645 and a non-resistant strain (ATCC 29011) were diluted 1:50 into fresh tryptic soy broth and incubated for 3 hours at 37° C. to attain log phase. The overnight cultures were tested as described in Example 2 and part A above.

[2] = test system: Staphylococcus aureus; assay: Radial diffusion bactericidal assay, Staphylococcus aureus; format: cell-based; details: radial diffusion; PROBIT analysis; S. aureus
[3] = test system: E. coli 0111:B4 (smooth) bacteria; assay: Radial diffusion bactericidal assay, E. coli 0111:B4; format: cell-based; details: radial diffusion; for pmol added to well to achieve a 30 mm^2 bactericidal zone, E. coli O111:B4: PROBIT analysis, E. coli O111:B4 (smooth); for bactericidal activity (in words): E. coli 0111:B4
[4] = test system: rough mutant E. coli J5 bacteria; assay: Radial diffusion bactericidal assay, E. coli J5; format: cell-based; details: radial diffusion; for pmol added to well to achieve a 30 mm^2 bactericidal zone, E. coli J5: PROBIT analysis, E. coli J5 (rough); for bactericidal activity (in words): E. coli J5
In short: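 Wells received 5 or 10 μL of BPI fragment, pre-incubated 3 h at 37 °C. The underlayer agarose carried washed log-phase organisms at 4×10^6 CFU/mL.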

[5] = test system: E. coli J5 (rough); assay: Broth antibacterial assay, E. coli J5; format: cell-based
Protocol: (§2) In additional experiments, broth antibacterial assays were conducted to further determine the bactericidal activity of certain of the BPI peptides. Specifically, either E. coli J5 (rough) or E. coli 0111:B4 (smooth) bacteria were selected from single colonies on agar plates and used to inoculate 5 mL of Mueller Hinton broth and incubated overnight at 37° C. with shaking. The overnight culture was diluted (˜1:50) into 5 mL fresh broth and incubated at 37° C. to log phase (˜3 hours). Bacteria were pelleted for 5 minutes at 3000 rpm (1500×g). Bacterial pellets were resuspended in 5 mL PBS and diluted to 2×10^6 cells/mL in the Mueller Hinton broth (wherein 1 OD570 unit equals 1.25×10^9 CFU/mL). The BPI functional domain peptides to be tested were diluted to 200 μg/mL in broth and serially diluted 2-fold in 96 well culture plates (100 μL volume). All items were at 2-fold final concentration and experiments were conducted in triplicate. Bacteria were added at 100 μL/well and the plates were incubated on a shaker at 37° C. for a 20 hour period. The plates were then read on an ELISA plate multiple reader at 590 nm. One of the triplicate wells from each peptide concentration was selected for colony forming unit (CFU) determination. A 30 μL aliquot was added to 270 μL of PBS and further ten-fold serial dilutions were performed. Then a 50 μL aliquot was plated on tryptic soy agar and incubated overnight. Colonies were counted and final bacterial concentrations determined. The results of these assays are depicted in FIGS. 9e (for E. coli J5) and 9f (for E. coli 0111:B4).

[6] = test system: E. coli 0111:B4 (smooth); assay: Broth antibacterial assay, E. coli 0111:B4; format: cell-based
Protocol: as §2

[7] = test system: multi-resistant strain E. coli 19536; assay: Radial diffusion bactericidal assay, multi-antibiotic resistant E. coli 19536; format: cell-based
Protocol: as §1
In order to test the bactericidal activity of BPI peptides against multi-antibiotic resistant E. coli, a multi-resistant strain E. coli 19536 (ampR 16 μg/mL; ceftazidimeR>16 μg/mL; ceftriazoneR>16 μg/mL) was tested. This strain is a clinical isolate obtained from the Baxter Microscan® library (Sacramento, Calif.). An overnight culture of E. coli 19536 was tested as described in Example 2 and part A above. Test BPI peptides were 2-fold serially diluted in D-PBS starting at about 1 mg/mL.

[8] = test system: RAW 264.7 cells; assay: LPS neutralization cellular proliferation assay, RAW 264.7 cells; format: cell-based, mouse
In short: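 Mouse RAW 264.7 cells were primed 24 h with 50U/mL mouse γ-interferon, then exposed about 15 h to E. coli O113 LPS in serum-free RPMI with or without BPI peptides at 25 ng/mL–50 μg/mL. Proliferation was quantified by [^3H]-thymidine uptake, 1 μCi/well, added at 5 h.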

[9] = 3H-heparin binding assay (affinity and capacity); details: for Heparin Capacity: heparin bound at saturation; for Kd: read-out: Heparin Affinity
In short: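 Bound 3H-heparin was counted by liquid scintillation after 1 h incubation at 4 °C with fragments immobilised on PVDF-bottomed wells, then washing in blocking buffer. Signal was corrected for BSA-related background, and varying amounts of rBPI23 were used as positive control.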

[10] = test system: C. albicans; assay: Radial diffusion fungicidal assay, Candida albicans; format: cell-based; details: radial diffusion
[11] = Heparin binding by tryptophan fluorescence quenching; details: for Kd: Stern-Volmer plots
Text: (§3) The naturally-occurring amino acid tryptophan can emit light (i.e., it fluoresces) having a wavelength between 300 and 400 nm after excitation with light having a wavelength of between about 280 nm and 290 nm, preferably 285 nm. The amount of emitted light produced by such fluorescence is known to be affected by the local environment, including pH and buffer conditions, as well as binding interactions between proteins and other molecules. Some BPI functional domain peptides derived from domains II and III contain tryptophan residues, and tryptophan fluorescence was used to assay binding interactions between the BPI functional domain peptides of the invention and LPS or heparin.
(§4) Tryptophan fluorescence of the BPI functional domain peptides of the invention was determined in the presence or absence of LPS or heparin using a SPEX Fluorolog fluorimeter. Samples were excited with 285 nm light using a 0.25 nm slitwidth. Emission wavelengths were scanned between 300-400 nm using a 1.25 nm slitwidth. Data were accumulated as the average of three determinations performed over an approximately 5 min time span. Samples were maintained at 25° C. or 37° C. during the course of the experiments using a circulating water bath. Crab endotoxin binding protein (CEBP), a protein wherein the intrinsic fluorescence of tryptophan residues is affected by binding to LPS, was used as a positive control. (See Wainwright et al., 1990, Cellular and Molecular Aspects of Endotoxin Reactions, Nowotny et al., eds., Elsevier Science Publishing B.V., The Netherlands, pp. 315-325).
(§5) Kd values were determined by Scatchard-type Stern-Volmer plots of the quenching data as the negative inverse of the slope of such plots. Comparing the data for BPI.10, BPI.46 and BPI.47, it is seen that as the Kd decreased (indicating an increase in avidity for LPS), the percent fluorescence quenching increased. The differences between these peptides include replacement of basic and polar amino acid residues with non-polar residues in […] as compared with BPI.10. In contrast, as the Kd of heparin binding decreased, a corresponding increase in the percentage of fluorescence quenching was not detected.

[12] = LPS binding by tryptophan fluorescence quenching; details: for Kd: Stern-Volmer plots
Text: as §3, §4, §5

| Substance | bactericidal activity (in words) [1] | pmol added to well to achieve a 30 mm^2 bactericidal zone, S. aureus [2] | pmol added to well to achieve a 30 mm^2 bactericidal zone, E. coli O111:B4 [3] | pmol added to well to achieve a 30 mm^2 bactericidal zone, E. coli J5 [4] | bactericidal activity (in words) [5] | bactericidal activity (in words) [3] | bactericidal activity (in words) [4] | bactericidal activity (in words) [6] | bactericidal activity (in words) [7] | EC50 (peptide concentration at which the growth inhibitory effect of LPS was reversed by 50%) [8] | IC50 (peptide concentration at which RAW cell growth was inhibited by 50%) [8] | Heparin Capacity [9] | Kd [9] | C. albicans: pmol required for 30 mm^2 zone [10] | heparin binding capacity (in words) [9] | Quenching Heparin [11] | Kd [11] | Quenching LPS [12] | Kd [12] |
| --- | --- | --- | --- | --- | --- | --- | --- | --- | --- | --- | --- | --- | --- | --- | --- | --- | --- | --- | --- |
| IKISGKAβ-(1-naphthyl)KAAβ-(1-naphthyl)KRFLK (IKISGK[1Nal]KA[1Nal]KRFLK) [BPI.119] | active against antibiotic resistant Klebsiella | 166,163.83 pmol | 536.44 pmol | 106.70 pmol | – | – | – | – | – | – | – | – | – | – | – | – | – | – | – |
| QKRFLKKWKAQKRFLKKWKAQKRFLK [BPI.10.2] | – | – | – | – | significant bactericidal activity | exhibited bactericidal activity | exhibited bactericidal activity | significant bactericidal activity | – | – | – | – | – | – | – | – | – | – | – |
| IKISGKWKAFFRFLK [BPI.88] | – | 9,051.04 pmol | 540.15 pmol | 70.32 pmol | – | – | – | – | activity against multi-antibiotic resistant E. coli | >50 mg/L | 6.2 ± 7.5 mg/L | 352.8 ng | 1.63 µM | – | – | – | – | – | – |
| KRFLKKWKAQKRFLK [BPI.9] | – | – | 5,337.50 pmol | 476.60 pmol | significant bactericidal activity | exhibited bactericidal activity | exhibited bactericidal activity | significant bactericidal activity | – | – | – | 212.5 ng | 1.14 µM | – | – | – | – | – | – |
| IKISGKWKAQKRFLKKSKVGWLIQLFHKK [BPI.63] | active against antibiotic resistant Klebsiella | 2,101.84 pmol | 511.61 pmol | 86.94 pmol | – | – | highly bactericidal | – | activity against multi-antibiotic resistant E. coli | 0.08 ± 0.02 mg/L | 7.1 ± 0.02 mg/L | 305.1 ng | 0.6 µM | >1006.34 pmol | extremely high heparin capacity | – | – | – | – |
| IKISGKWKAWKRFLKK [BPI.103] | active against antibiotic resistant Klebsiella | 4,705.95 pmol | 415.19 pmol | 165.18 pmol | – | – | – | – | – | – | – | – | – | – | – | – | – | – | – |
| KRFLKKWKAQKRFLKKWKAQKRFLK [BPI.10.1] | – | – | – | – | significant bactericidal activity | exhibited bactericidal activity | exhibited bactericidal activity | significant bactericidal activity | – | – | – | – | – | – | – | – | – | – | – |
| KWKAAARFLKKWKAAARFLKKWKAAARFLK [BPI.69] | active against antibiotic resistant Klebsiella | 1,057.56 pmol | 244.07 pmol | 56.68 pmol | – | – | highly bactericidal | – | activity against multi-antibiotic resistant E. coli | 0.11 ± 0.07 mg/L | 2.4 ± 0.3 mg/L | 450.8 ng | 0.967 µM | – | extremely high heparin capacity | 42% | 0.4 µM | 72% | 0.058 µM |
| KWKAQKRFLKKWKAAARFLK [BPI.47] | – | 41,213.59 pmol | 576.74 pmol | 97.73 pmol | – | – | highly bactericidal | – | – | 0.9 ± 0.3 mg/L | 9.8 ± 0.1 mg/L | 576.4 ng | 1.91 µM | – | extremely high heparin capacity | 47% | 2.2 µM | 41% | 0.115 µM |
